Test results as given in patent publication US10933141B2, “Formulations with reduced degradation of polysorbate” (Genentech, Inc., priority 2015, dated 2021).
Entries after “also recorded” stand apart in the source; their conditions may differ.

Target: T1, porcine pancreatic lipase (PPL) (Sus scrofa, UniProt P00591)
T1 construct: purchased Sigma Aldrich Inc. (St. Louis, Mo.)
T1 sequence (P00591 1-450): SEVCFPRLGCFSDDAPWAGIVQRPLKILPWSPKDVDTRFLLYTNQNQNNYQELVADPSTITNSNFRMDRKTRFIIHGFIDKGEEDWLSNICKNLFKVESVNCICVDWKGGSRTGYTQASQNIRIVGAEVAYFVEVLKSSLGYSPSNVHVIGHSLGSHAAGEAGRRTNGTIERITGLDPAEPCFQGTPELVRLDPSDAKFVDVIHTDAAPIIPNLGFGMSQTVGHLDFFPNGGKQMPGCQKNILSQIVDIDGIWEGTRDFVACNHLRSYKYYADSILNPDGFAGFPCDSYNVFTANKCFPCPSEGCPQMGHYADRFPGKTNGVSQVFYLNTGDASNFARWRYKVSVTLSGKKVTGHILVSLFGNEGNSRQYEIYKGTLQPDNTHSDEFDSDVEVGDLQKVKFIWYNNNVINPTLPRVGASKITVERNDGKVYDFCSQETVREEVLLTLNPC
Experiment: Enzymatic degradation of PS20 by PPL, 4.5 hour digestion, PS20 by RP-ELSD
Format: biochemical
Details: for decrease in PS20: 0.02% PS20, pH 5.5, 15 μg/mL PPL 4.5 hours room temperature, excipient 15% w/v (cyclodextrins 106 mM); for inhibitory effect on enzymatic PS20 degradation (in words): 0.02% PS20, 15 μg/mL PPL 4.5 hours, excipient 15% w/v (methionine 10 mg/mL)
Procedure: Polysorbate concentration was determined using reverse phase ultra-performance liquid chromatography using evaporative light scattering detection (RP-ELSD). Samples were analyzed using an Agilent 1100 series high performance liquid chromatography system (HPLC) fitted with a Waters Oasis MAX cartridge column (20×2.1 mm, 30 μm particle size). The HPLC system was set up with a switching valve directing column flow-through to either waste or a Varian 380-LC evaporative light scattering detector set to 100° C. The mobile phases consisted of 2% formic acid in water (Pump A) and 2% formic acid in isopropanol (Pump B). The pump gradient was isocratic at 10% pump B during equilibration, linear to 20% pump B for 1 minute, isocratic at 20% pump B for 2.4 minutes, linear to 100% pump B for 0.1 minutes, isocratic at 100% pump B for 1.1 minutes, linear to 10% pump B for 0.1 minutes, and finally isocratic at 10% pump B for 1.9 minutes. The switching valve directed column flow-through to waste at the beginning of every injection, and then directed flow to the detector after 2.4 minutes until the end of the gradient. In order to quantitate the PS20 concentration, a standard curve was generated by injecting 20 μL of solutions containing between 0% w/v and 0.4% w/v PS20.
Several excipients were tested for their ability to protect PS20 against enzymatic hydrolysis including HP-α-CD, HP-β-CD, HP-γ-CD, SBE-β-CD, PVP, PEG 1500, sucrose, and methionine. Solutions of each excipient in pH 5.5 buffer were prepared containing a final concentration of 0.02% PS20 after enzyme addition. The concentration of HP-α-CD, HP-β-CD, HP-γ-CD, and SBE-β-CD in the excipient solutions was 106 mM. […] The remaining excipients (PVP, PEG 1500, sucrose) were added to 15% w/v to match the % w/v of HP-β-CD. Samples were digested with 15 μg/mL PPL enzyme for 4.5 hours at room temperature, followed by 30 minutes of heat inactivation at 85° C. Each sample was analyzed for PS20 concentration using high performance liquid chromatography with an inline evaporative light scattering detector. Samples were then placed at 5° C. overnight to allow for the formation of particles and were analyzed for visible and subvisible particles as described previously.
The effect of the HP-β-CD concentration at different PS20 concentrations on the enzymatic degradation of PS20 was assessed to identify optimal concentrations for inhibition of enzymatic PS20 degradation. To evaluate the dependence of PS20 degradation on HP-β-CD concentration, the PS20 content was determined using RP-ELSD for triplicate samples containing different HP-β-CD concentrations at various PS20 concentrations. Samples containing 0.005% (FIG. 14A), 0.02% (FIG. 14B), 0.1% (FIG. 14C), and 0.4% PS20 (FIG. 14D) were digested using 15 μg/mL of PPL enzyme for 4.5 hours at room temperature in protein-free samples containing no excipient (control), 0, 0.5, 5, and 15% (w/v) HP-β-CD. PPL was added to each of the treatment solutions at a ratio of 75 […], with an equivalent volume of buffer added to the control solutions to determine the effect of HP-β-CD to polysorbate ratio on enzymatic degradation. Digestion was stopped by heat inactivation in an 85° C. water bath for 30 minutes. Each sample was analyzed for PS20 concentration using high performance liquid chromatography with an inline evaporative light scattering detector as described above. Samples were then placed at 5° C. overnight to allow for the formation of particles and placed on ice during analysis for visible and subvisible particles as described above.

Compound: 2-hydroxypropyl-β-cyclodextrin [HP-β-CD]
- HP-β-CD concentration required to fully inhibit PS20 degradation (0.005% PS20, PPL 4.5 hours): 0.5%
- decrease in PS20: 7%
- inhibitory effect on enzymatic PS20 degradation (in words): significant inhibitory effects; also recorded: able to prevent enzymatic degradation of PS20
- HP-β-CD concentration required to fully inhibit PS20 degradation (0.1% PS20, PPL 4.5 hours): 15%
- HP-β-CD:PS20 ratio required to inhibit enzymatic PS20 degradation (PPL 4.5 hours, across PS20 and HP-β-CD concentrations): ≥ 37.5 w/w
- PS20 remaining (Relative %) ([HP-β-CD]/[PS20] wt/wt ratio 0.5 (mole ratio 0.4), PPL 4.5 hours): 41.4 Relative %
- PS20 remaining (Relative %) ([HP-β-CD]/[PS20] wt/wt ratio 1.25 (mole ratio 1.1), PPL 4.5 hours): 41.2 Relative %
- PS20 remaining (Relative %) ([HP-β-CD]/[PS20] wt/wt ratio 2.5 (mole ratio 2.2), PPL 4.5 hours): 44.0 Relative %
- PS20 remaining (Relative %) ([HP-β-CD]/[PS20] wt/wt ratio 5 (mole ratio 4.35), PPL 4.5 hours): 65.3 Relative %
- PS20 remaining (Relative %) ([HP-β-CD]/[PS20] wt/wt ratio 12.5 (mole ratio 10.9), PPL 4.5 hours): 86.4 Relative %
- PS20 remaining (Relative %) ([HP-β-CD]/[PS20] wt/wt ratio 25 (mole ratio 21.8), PPL 4.5 hours): 90.3 Relative %
- PS20 remaining (Relative %) ([HP-β-CD]/[PS20] wt/wt ratio 37.5 (mole ratio 32.6), PPL 4.5 hours): 106.7 Relative %
- PS20 remaining (Relative %) ([HP-β-CD]/[PS20] wt/wt ratio 50 (mole ratio 43.5), PPL 4.5 hours): 98.6 Relative %
- PS20 remaining (Relative %) ([HP-β-CD]/[PS20] wt/wt ratio 100 (mole ratio 87.0), PPL 4.5 hours): 93.9 Relative %
- PS20 remaining (Relative %) ([HP-β-CD]/[PS20] wt/wt ratio 150 (mole ratio 130.5), PPL 4.5 hours): 108.3 Relative %
- PS20 remaining (Relative %) ([HP-β-CD]/[PS20] wt/wt ratio 250 (mole ratio 217.6), PPL 4.5 hours): 101.9 Relative %
- PS20 remaining (Relative %) ([HP-β-CD]/[PS20] wt/wt ratio 750 (mole ratio 652.7), PPL 4.5 hours): 104.2 Relative %
- PS20 remaining (Relative %) ([HP-β-CD]/[PS20] wt/wt ratio 1000 (mole ratio 870.2), PPL 4.5 hours): 104.3 Relative %
- PS20 remaining (Relative %) ([HP-β-CD]/[PS20] wt/wt ratio 3000 (mole ratio 2610.6), PPL 4.5 hours): 112.4 Relative %

Compound: 2-hydroxypropyl-α-cyclodextrin [HP-α-CD]
- decrease in PS20: 1%
- inhibitory effect on enzymatic PS20 degradation (in words): significant inhibitory effects; also recorded: able to prevent enzymatic degradation of PS20

Compound: 2-hydroxypropyl-γ-cyclodextrin [HP-γ-CD]
- inhibitory effect on enzymatic PS20 degradation (in words): able to prevent enzymatic degradation of PS20

Compound: OC[C@H]1O[C@@](CO)(O[C@H]2O[C@H](CO)[C@@H](O)[C@H](O)[C@H]2O)[C@@H](O)[C@@H]1O [sucrose, reference compound]
- decrease in PS20: 58%
- inhibitory effect on enzymatic PS20 degradation (in words): does not have an inhibitory effect
